Test results reported in the supplement of paper PMC13380429.

Columns and labels:
Conditions in all cases: 72 h
Caco-2 [1] = test: cell viability relative to DMSO; higher = less toxic
Calu-3 [2] = test: as above
HepG2 [3] = test: as above
U2OS [4] = test: as above
Vero E6 [5] = test: as above
Caco-2 [6] = test: relative viability EC50 (midpoint between 100% and the lowest measured viability); higher = less toxic
Calu-3 [7] = test: as above
HepG2 [8] = test: as above
U2OS [9] = test: as above
Vero E6 [10] = test: as above
Caco-2 [11] = test: drug sensitivity score (DSS) for viability; higher = more toxic; extreme values may be limits of the assay
Calu-3 [12] = test: as above
HepG2 [13] = test: as above
U2OS [14] = test: as above
Vero E6 [15] = test: as above

Row | SMILES | cell viability (Caco-2 [1]; 1 nM) [%] | cell viability (Caco-2 [1]; 10 nM) [%] | cell viability (Caco-2 [1]; 100 nM) [%] | cell viability (Caco-2 [1]; 1000 nM) [%] | cell viability (Caco-2 [1]; 10000 nM) [%] | cell viability (Calu-3 [2]; 1 nM) [%] | cell viability (Calu-3 [2]; 10 nM) [%] | cell viability (Calu-3 [2]; 100 nM) [%] | cell viability (Calu-3 [2]; 1000 nM) [%] | cell viability (Calu-3 [2]; 10000 nM) [%] | cell viability (HepG2 [3]; 1 nM) [%] | cell viability (HepG2 [3]; 10 nM) [%] | cell viability (HepG2 [3]; 100 nM) [%] | cell viability (HepG2 [3]; 1000 nM) [%] | cell viability (HepG2 [3]; 10000 nM) [%] | cell viability (U2OS [4]; 1 nM) [%] | cell viability (U2OS [4]; 10 nM) [%] | cell viability (U2OS [4]; 100 nM) [%] | cell viability (U2OS [4]; 1000 nM) [%] | cell viability (U2OS [4]; 10000 nM) [%] | cell viability (Vero E6 [5]; 1 nM) [%] | cell viability (Vero E6 [5]; 10 nM) [%] | cell viability (Vero E6 [5]; 100 nM) [%] | cell viability (Vero E6 [5]; 1000 nM) [%] | cell viability (Vero E6 [5]; 10000 nM) [%] | relative viability EC50 (Caco-2 [6]) [µM] | relative viability EC50 (Calu-3 [7]) [µM] | relative viability EC50 (HepG2 [8]) [µM] | relative viability EC50 (U2OS [9]) [µM] | relative viability EC50 (Vero E6 [10]) [µM] | drug sensitivity score (Caco-2 [11]) | drug sensitivity score (Calu-3 [12]) | drug sensitivity score (HepG2 [13]) | drug sensitivity score (U2OS [14]) | drug sensitivity score (Vero E6 [15])
1 | CCOC(=O)c1c[nH]cn1 [C-751] | 88.6 | 91.6 | 96.4 | 98.3 | 90.4 | 100 | 97.2 | 90.3 | 92.9 | 104 | 104 | 99.6 | 95.6 | 93.1 | 109 | 100 | 100 | 94.6 | 102 | 93 | 99.5 | 96.7 | 99.6 | 92.6 | 100 | > 10 | > 10 | > 10 | > 10 | > 10 | 0 | 0 | 0 | 0 | 0
2 | COC(=O)Nc1ccc2[nH]cc(CCNC(C)=O)c2c1 | 96.3 | 95.8 | 94.6 | 98.9 | 105 | 103 | 96.6 | 98.1 | 97.8 | 97.8 | 102 | 94.6 | 98.3 | 96.4 | 91 | 98.2 | 104 | 98 | 97.2 | 96.6 | 99 | 102 | 103 | 95.3 | 99 | > 10 | > 10 | > 10 | > 10 | > 10 | 0 | 0 | 0 | 0 | 0
3 | O=S(=O)(c1ccccc1F)N1CCOc2c(N3CCNCC3)cccc21 [R-1485] | 89.3 | 98.6 | 93 | 96.3 | 95.6 | 96.5 | 100 | 98.8 | 100 | 90.8 | 102 | 101 | 101 | 93.6 | 96.7 | 96.2 | 96.5 | 93.6 | 97.6 | 92.8 | 105 | 105 | 99.2 | 97.3 | 108 | > 10 | > 10 | > 10 | > 10 | > 10 | 0 | 0 | 0 | 0 | 0
4 | O=C(N[C@@H]1Cc2ccccc2N(C[C@@H](O)CO)C1=O)c1cc2cc(Cl)sc2[nH]1 [GPi-688] | 101 | 98 | 96.9 | 94.2 | 92.9 | 102 | 99.3 | 99.9 | 94.1 | 87.8 | 96 | 104 | 98.1 | 104 | 100 | 98.4 | 102 | 95.2 | 96.8 | 94.7 | 99.9 | 102 | 104 | 100 | 90.5 | > 10 | > 10 | > 10 | > 10 | > 10 | 0 | 0.3 | 0 | 0 | 0
